Measured values published in US12351570B2 (MERCK PATENT GMBH, priority 2018, dated 2025).

Tested on: MDA-MB-231 cells
Test: Extracellular lactate production inhibition after 4 h, MDA-MB-231
Settings: Homo sapiens, MDA-MB-231

Row | SMILES | IC50
1 | COc1cc(C)c(S(=O)(=O)Nc2ccccc2C#Cc2ccc(C(=O)O)nc2)c(C)c1C [Compound 277, 5-{2-[2-(4-methoxy-2,3,6-trimethyl-benzenesulfonamido)phenyl]ethynyl}-pyridine-2-carboxylic acid] | 100 to 1000 nM
2 | O=C(O)c1ccc(C#Cc2ccccc2NS(=O)(=O)c2cccn3ccnc23)cn1 [Compound 278, 5-[2-(Imidazo[1,2-a]pyridine-8-sulfonyl-amino)-phenylethynyl]-pyridine-2-carboxylic acid] | 1000 to 100000 nM
3 | O=C(O)c1ncc(C#Cc2ccccc2NS(=O)(=O)c2cccc3ccccc23)cc1F [Compound 279, 3-fluoro-5-{2-[2-(naphthalene-1-sulfon-amido)phenyl]ethynyl}pyridine-2-carboxylic acid] | 1000 to 100000 nM
4 | O=C(O)c1ccc(C#Cc2cc(Cl)ccc2NS(=O)(=O)c2ccc(Cl)cc2)cn1 [Compound 280, 5-{2-[5-chloro-2-(4-chlorobenzene-sulfonamido)phenyl]ethynyl}pyridine-2-carboxylic acid] | 1000 to 100000 nM
5 | O=C(O)c1ccc(C#Cc2ccccc2NS(=O)(=O)c2cc3cc(Cl)ccc3s2)cc1 [Compound 281, 4-{2-[2-(5-chloro-1-benzothiophene-2-sulfonamido)phenyl]ethynyl}benzoic acid] | 100 to 1000 nM
6 | CSc1nccc(-c2ccc(S(=O)(=O)Nc3ccccc3C#Cc3ccc(C(=O)O)cc3)s2)n1 [Compound 282, 4-[2-(2-{5-[2-(methylsulfanyl)pyrimidin-4-yl]thiophene-2-sulfonamido}phenyl)-ethynyl]benzoic acid] | 1000 to 100000 nM
7 | O=C(O)c1ncc(C#Cc2ccccc2NS(=O)(=O)c2cccc3ccccc23)cc1C(F)(F)F [Compound 283, 5-{2-[2-(naphthalene-1-sulfon-amido)phenyl]ethynyl}-3-(trifluoro-methyl)pyridine-2-carboxylic acid] | 1000 to 100000 nM
8 | CCOc1ccc(S(=O)(=O)Nc2ccccc2C#Cc2ccc(C(=O)O)nc2)c2ccccc12 [Compound 284, 5-{2-[2-(4-ethoxynaphthalene-1-sulfonamido)phenyl]ethynyl}pyridine-2-carboxylic acid] | 10 to 100 nM
9 | O=C(O)c1ccc(C#Cc2ccc(F)cc2NS(=O)(=O)c2cccc3ccccc23)cn1 [Compound 285, 5-{2-[4-fluoro-2-(naphthalene-1-sulfonamido)phenyl]ethynyl}pyridine-2-carboxylic acid] | 100 to 1000 nM
10 | O=C(O)c1ccc(C#Cc2ccccc2NS(=O)(=O)c2ccc3oc4ccccc4c3c2)cn1 [Compound 286, 5-[2-(2-{8-oxatricyclo[7.4.0.0^2,7]trideca-1(9),2(7),3,5,10,12-hexaene-4-sulfonamido}phenyl)ethynyl]pyridine-2-carboxylic acid] | 100 to 1000 nM
11 | COc1ccc(S(=O)(=O)Nc2ccccc2C#Cc2ccc(C(=O)O)nc2)c(Cl)c1 [Compound 287, 5-{2-[2-(2-chloro-4-methoxybenzene-sulfonamido)phenyl]ethynyl}pyridine-2-carboxylic acid] | 1000 to 100000 nM
12 | Cc1cc(S(=O)(=O)Nc2ccccc2C#Cc2ccc(C(=O)O)nc2)c2cc(C)ncc2c1 [Compound 288, 5-{2-[2-(3,7-dimethylisoquinoline-5-sulfonamido)phenyl]ethynyl}pyridine-2-carboxylic acid] | 1000 to 100000 nM
13 | O=C(O)c1ccc(C#Cc2ccccc2NS(=O)(=O)c2cccc3c(Cl)cccc23)cn1 [Compound 289, 5-{2-[2-(5-chloronaphthalene-1-sulfonamido)phenyl]ethynyl}pyridine-2-carboxylic acid] | 100 to 1000 nM
14 | Cc1ccc2nsnc2c1S(=O)(=O)Nc1ccccc1C#Cc1ccc(C(=O)O)nc1 [Compound 290, 5-{2-[2-(5-methyl-2,1,3-benzothia-diazole-4-sulfonamido)phenyl]-ethynyl}pyridine-2-carboxylic acid] | 1000 to 100000 nM
15 | O=C(O)c1ccc(C#Cc2ccccc2NS(=O)(=O)c2ccc(-c3ccccc3)cc2)cn1 [Compound 291, 5-[2-(2-{[1,1′-biphenyl]-4-sulfonamido}phenyl)ethynyl]pyridine-2-carboxylic acid] | 10 to 100 nM
16 | O=C(O)c1ccc(C#Cc2ccccc2NS(=O)(=O)c2cccc3nsnc23)cn1 [Compound 292, 5-{2-[2-(2,1,3-benzothiadiazole-4-sulfonamido)phenyl]ethynyl}pyridine-2-carboxylic acid] | 1000 to 100000 nM
17 | Cc1ccccc1-c1ccc(S(=O)(=O)Nc2ccccc2C#Cc2ccc(C(=O)O)nc2)cc1 [Compound 293, 5-[2-(2-{2′-methyl-[1,1′-biphenyl]-4-sulfonamido}phenyl)ethynyl]pyridine-2-carboxylic acid] | 100 to 1000 nM
18 | O=C(O)c1ccc(C#Cc2ccccc2NS(=O)(=O)c2cc(F)cc3cccnc23)cn1 [Compound 294, 5-{2-[2-(6-fluoroquinoline-8-sulfonamido)phenyl]ethynyl}pyridine-2-carboxylic acid] | 100 to 1000 nM
19 | CC(C)Oc1ccc(S(=O)(=O)Nc2ccccc2C#Cc2ccc(C(=O)O)nc2)c2ccccc12 [Compound 295, 5-(2-{2-[4-(propan-2-yloxy)naphthalene-1-sulfonamido]phenyl}ethynyl)pyridine-2-carboxylic acid] | 10 to 100 nM

Row | SMILES | IC50
20 | Cn1ccc2cccc(S(=O)(=O)Nc3ccccc3C#Cc3ccc(C(=O)O)nc3)c21 [Compound 296, 5-{2-[2-(1-methyl-1H-indole-7-sulfonamido)phenyl]ethynyl}pyridine-2-carboxylic acid] | 1000 to 100000 nM
21 | O=C(O)c1ccc(C#Cc2ccccc2NS(=O)(=O)c2ccc3occc3c2)cn1 [Compound 297, 5-{2-[2-(1-benzofuran-5-sulfonamido)phenyl]ethynyl}pyridine-2-carboxylic acid] | 1000 to 100000 nM
22 | O=C(O)c1ccc(C#Cc2ccccc2NS(=O)(=O)c2cccc3c(Cl)c(Cl)cnc23)cn1 [Compound 298, 5-{2-[2-(3,4-dichloroquinoline-8-sulfonamido)phenyl]ethynyl}pyridine-2-carboxylic acid] | 10 to 100 nM
23 | COc1ccc(S(=O)(=O)Nc2ccccc2C#Cc2ccc(C(=O)O)nc2)c(OC)c1 [Compound 299, 5-{2-[2-(2,4-dimethoxybenzenesulfon-amido)phenyl]ethynyl}pyridine-2-carboxylic acid] | 1000 to 100000 nM
24 | CCOc1ccc(S(=O)(=O)Nc2ccccc2C#Cc2ccc(C(=O)O)nc2)cc1NC(C)=O [Compound 300, 5-{2-[2-(3-acetamido-4-ethoxy-benzenesulfonamido)phenyl]ethynyl}-pyridine-2-carboxylic acid] | 100 to 1000 nM
25 | O=C(O)c1ccc(C#Cc2ccccc2NS(=O)(=O)c2ccc3c(c2)oc2ccccc23)cn1 [Compound 301, 5-[2-(2-{8-oxatricyclo[7.4.0.0^2,7]trideca-1(9),2(7),3,5,10,12-hexaene-5-sulfonamido}phenyl)ethynyl]pyridine-2-carboxylic acid] | 100 to 1000 nM
26 | O=C(O)c1ccc(C#Cc2ccccc2NS(=O)(=O)c2c(Cl)ccc3c(Cl)ccnc23)cn1 [Compound 302, 5-{2-[2-(4,7-dichloroquinoline-8-sulfonamido)phenyl]ethynyl}pyridine-2-carboxylic acid] | 10 to 100 nM
27 | Cn1ccc2c(S(=O)(=O)Nc3ccccc3C#Cc3ccc(C(=O)O)nc3)cccc21 [Compound 303, 5-{2-[2-(1-methyl-1H-indole-4-sulfonamido)phenyl]ethynyl}pyridine-2-carboxylic acid] | 100 to 1000 nM
28 | O=C(O)c1ccc(C#Cc2ccccc2NS(=O)(=O)c2ccc(Cl)s2)cn1 [Compound 304, 5-{2-[2-(5-chlorothiophene-2-sulfonamido)phenyl]ethynyl}pyridine-2-carboxylic acid] | 1000 to 100000 nM
29 | Cc1c(C)c(S(=O)(=O)Nc2ccccc2C#Cc2ccc(C(=O)O)nc2)c2ncccc2c1C [Compound 305, 5-{2-[2-(5,6,7-trimethylquinoline-8-sulfonamido)phenyl]ethynyl}pyridine-2-carboxylic acid] | 10 to 100 nM
30 | O=C(O)c1ccc(C#Cc2ccccc2NS(=O)(=O)c2c(Cl)cc(Cl)c3cccnc23)cn1 [Compound 306, 5-{2-[2-(5,7-dichloroquinoline-8-sulfonamido)phenyl]ethynyl}pyridine-2-carboxylic acid] | 10 to 100 nM
31 | Cc1cc(C#Cc2cc(F)ccc2NS(=O)(=O)c2c(C)ccc3cccnc23)cnc1C(=O)O [Compound 307, 5-{2-[5-fluoro-2-(7-methylquinoline-8-sulfonamido)phenyl]ethynyl}-3-methylpyridine-2-carboxylic acid] | 10 to 100 nM
32 | Cc1cc(C#Cc2cc(F)ccc2NS(=O)(=O)c2ccc(-c3ccccc3)cc2)cnc1C(=O)O [Compound 308, 5-[2-(2-{[1,1′-biphenyl]-4-sulfonamido}-5-fluorophenyl)ethynyl]-3-methylpyridine-2-carboxylic acid] | 100 to 1000 nM
33 | Cc1cc(C#Cc2cc(F)ccc2NS(=O)(=O)c2ccc3c(c2)oc2ccccc23)cnc1C(=O)O [Compound 309, 5-[2-(5-fluoro-2-{8-oxatricyclo[7.4.0.0^2,7]trideca-1(9),2(7),3,5,10,12-hexaene-5-sulfonamido}phenyl)ethynyl]-3-methylpyridine-2-carboxylic acid] | 100 to 1000 nM
34 | Cc1ccc2c(C)ccnc2c1S(=O)(=O)Nc1ccccc1C#Cc1ccc(C(=O)O)nc1 [Compound 310, 5-{2-[2-(4,7-dimethylquinoline-8-sulfonamido)phenyl]ethynyl}pyridine-2-carboxylic acid] | 10 to 100 nM
35 | COc1ccc(S(=O)(=O)Nc2ccc(F)cc2C#Cc2cnc(C(=O)O)c(C)c2)c2ncccc12 [Compound 311, 5-{2-[5-fluoro-2-(5-methoxyquinoline-8-sulfonamido)phenyl]ethynyl}-3-methylpyridine-2-carboxylic acid] | 100 to 1000 nM
36 | COC(=O)c1ncc(C#Cc2cc(F)ccc2NS(=O)(=O)c2c(C)ccc3cccnc23)cc1C [Compound 312, methyl 5-{2-[5-fluoro-2-(7-methylquinoline-8-sulfonamido)phenyl]ethynyl}-3-methylpyridine-2-carboxylate] | 1000 to 100000 nM
37 | COC(=O)c1ncc(C#Cc2cc(F)ccc2NS(=O)(=O)c2ccc(-c3ccccc3)cc2)cc1C [Compound 313, methyl 5-[2-(2-{[1,1′-biphenyl]-4-sulfonamido}-5-fluorophenyl)ethynyl]-3-methylpyridine-2-carboxylate] | 1000 to 100000 nM
